We go through five compounds from paper PMC6100046, “Plasma Pharmacokinetic Determination of Canagliflozin and Its Metabolites in a Type 2 Diabetic Rat Model by UPLC-MS/MS” (Molecules : A Journal of Synthetic Chemistry and Natural …, 2018).

Like-named read-outs stand apart in the source and are kept apart here.

A short description of series [1]: Stability of canagliflozin in rat plasma samples (QC samples). In kind it is in vitro ADME. The conditions noted are these: for Concentration found after storage (Mean ± SD): rat plasma, n = 5. Here is the method:
High, medium and low levels of QC concentrations were used to evaluate the stability of canagliflozin in plasma under the experimental conditions.
The specificity of the method was evaluated by comparing the chromatography of rat blank plasma samples with blank rat plasma spiked with standards at high, medium, low concentrations including LLOQ and rat plasma samples after oral administration of canagliflozin. The intra-day accuracy and precision were determined by analyzing five replicates of the QC samples at high, medium, and low concentrations within one day, while the inter-day accuracy and precision were conducted by determining five replicates of four levels of QCs on 3 separate days. The assay’s accuracy was represented by the […]. The precision was represented as the relative standard deviation (RSD) of the replicates. The matrix effect was determined by dividing the peak areas of canagliflozin spiked into extracted blank plasma by that of the analyte spiked in the mobile phase. The extraction recovery of canagliflozin and IS was assessed by comparing the peak areas of extracted plasma. […] […] The freeze (−80 °C)–thaw (room temperature) stability of the analytes in rat plasma was tested via three freeze–thaw cycles. […] In regard to the storage stability, the QC samples were prepared and stored at −80 °C for 30 days.

The nature of series [2]: Plasma pharmacokinetics of canagliflozin and its metabolites after oral administration to CTRL and type 2 diabetic (DM) rats, UPLC-MS/MS. The format is in vivo, rat. The conditions noted are these: for AUC(0-inf) / Tmax / MRT last / half-life / Cmax: po; for AUC(0-inf): AUC0–∞, heading: AUC0–∞; for MRT last: read-out: MRT0–t; for half-life: read-out: t1/2z (converted); for Cmax: metabolites semi-quantitative; for Concentration of metabolite in rat plasma (in words): rat plasma after canagliflozin, UPLC-TOF-MS/MS identification. From the text: The determination of metabolite concentrations was done by a semi-quantitative analysis method: the peak area of the metabolites was divided by the peak area of the original drug and then multiplied by the concentration of original drug.
The type 2 diabetic model was developed using a combination of a high-fat diet (HFD) and low-dose STZ injection. Briefly, rats were randomized into CTRL (control) and DM (diabetes mellitus) groups. The CTRL rats received a standard diet, whereas DM rats were fed high-fat food, which consisted of 63.5–66.5% normal chow, 1% cholesterol, 0.5% sodium cholate, 10% yolk, 12–15% lard, and 10% sucrose. DM rats were given an intraperitoneal injection of STZ (35 mg/kg, dissolved in citrate buffer, pH 4.5) after 4 weeks of dietary alteration, and CTRL rats received an equivalent injection of citrate buffer only. The blood glucose concentrations, food intake, and body weights of the rats were monitored weekly. Rats with non-fasting blood glucose levels lower than 16.67 mmol/L (300 mg/dL) were excluded from the DM group. Biochemical parameters (serum triglycerides, serum total cholesterol, and insulin) were measured on day 28 after the injection of STZ. The homeostasis model assessment of insulin resistance (HOMA-IR) was calculated by a standard equation to examine insulin sensitivity. The following experiments were performed on day 35 after STZ injection.
We performed the pharmacokinetic studies of canagliflozin after oral administration by gavage, and all rats used in this research were fasted for 12 h before dosing. CTRL and DM group rats (5 rats in each group) received a dose of canagliflozin at 20 mg/kg that was suspended in 0.5% sodium carboxymethylcellulose. A blood quantity of less than 0.3 mL was sampled via the oculi chorioideae vein after administration of canagliflozin at 1, 2, 3, 4, 5, 6, 7, 8, 10, 12, 24, 36 and 48 h under light ether anesthesia. All blood samples were immediately centrifuged at 5000 rpm for 10 min and the plasma was collected and frozen at −40 °C until analysis.
The acquisition software used were Analyst TF 1.7.1 software and Analyst software (AB Sciex, Redwood city, CA, USA). The pharmacokinetic parameters were processed by non-compartmental analysis using DAS 2.1.1 software (Mathematical Pharmacology Professional Committee of China, Shanghai, China). Data are presented as means ± SDs. Statistical differences were evaluated by Student’s t-test. A p-value of less than 0.05 indicated a statistically significant difference (SPSS 18.0 software, SPSS Inc., Chicago, IL, USA).

Where [3] appears, read: rat, plasma, 20 mg/kg, CTRL rats, canagliflozin 20 mg/kg oral, mean ± SD, n = 5.
[4] abbreviates: rat, plasma, 20 mg/kg, DM (type 2 diabetic) rats, canagliflozin 20 mg/kg oral, mean ± SD, n = 5.

The term CL/F denotes clearance divided by bioavailability, as obtained after extravascular dosing. The term AUC(0-inf) denotes the area under the concentration-time curve extrapolated to infinity. What is called Tmax is the time at which the peak concentration occurs. What is called Cmax is the peak of the concentration-time curve. For `Cc1ccc([C@@H]2O[C@H](CO)[C@@H](O)[C@H](O)[C@H]2O)cc1Cc1ccc(-c2ccc(F)cc2)s1` [Canagliflozin], the “Stability in rat plasma (in words)” value in series [1] (auto-sampler temperature (4 °C), 24 h) is “good stability”; in series [1] (room temperature (25 °C) for 24 h), “stable”; in series [1] (storage conditions (−80 °C) for at least 30 days), “stable”; in series [1] (−80 °C followed by three freeze and thaw cycles), “good stability”. Also, the Concentration found after storage (Mean ± SD) in series [1] (autosampler (4 °C) for 24 h, nominal concentration 25) is 25.7 ± 0.33 ng/mL; in series [1] (autosampler (4 °C) for 24 h, nominal concentration 500) it was 503.1 ± 4.41 ng/mL; in series [1] (autosampler (4 °C) for 24 h, nominal concentration 800), 806.8 ± 5.64 ng/mL; in series [1] (room temperature (25 °C) for 24 h, nominal concentration 25) it was 26.2 ± 0.96 ng/mL; in series [1] (room temperature (25 °C) for 24 h, nominal concentration 500) it was 504.4 ± 3.18 ng/mL; in series [1] (room temperature (25 °C) for 24 h, nominal concentration 800), 807.3 ± 6.12 ng/mL. The Concentration found after storage (Mean ± SD) in series [1] (three freeze–thaw cycles (each at −80 °C for 24 h), nominal concentration 25) was found to be 26 ± 1.02 ng/mL; in series [1] (three freeze–thaw cycles (each at −80 °C for 24 h), nominal concentration 500), 505.2 ± 4.12 ng/mL; in series [1] (three freeze–thaw cycles (each at −80 °C for 24 h), nominal concentration 800) it was 806.2 ± 4.19 ng/mL; in series [1] (−80 °C for 30 days, nominal concentration 25), 26.9 ± 0.85 ng/mL; in series [1] (−80 °C for 30 days, nominal concentration 500), 504.3 ± 2.14 ng/mL; in series [1] (−80 °C for 30 days, nominal concentration 800), 806.3 ± 3.51 ng/mL. Also, in series [2] (rat, plasma, 20 mg/kg, heading: CLz/F, CTRL rats, canagliflozin 20 mg/kg oral, mean ± SD, n = 5), the CL/F is 5.96 mL/min/kg. Moreover, the total exposure AUC(0-inf) stood at 56300 ng·h/mL in series [2] (rat, plasma, 20 mg/kg, CTRL rats, canagliflozin 20 mg/kg oral, plasma, mean ± SD, n = 5) and 28400 ng·h/mL in series [2] (rat, plasma, 20 mg/kg, DM (type 2 diabetic) rats, canagliflozin 20 mg/kg oral, plasma, mean ± SD, n = 5). The Tmax in series [2] (setting [3]) is 3.6 ± 0.89 h; in series [2] (setting [4]), 3.2 ± 0.45 h. Moreover, the MRT last in series [2] (setting [3]) worked out at 14.1 ± 1.58 h; in series [2] (setting [4]) it was 12.3 ± 2.77 h. Also, the half-life in series [2] (setting [3]) was 12.9 ± 2.64 h; in series [2] (setting [4]) it was 10.2 ± 3.49 h. Besides, the Cmax in series [2] (setting [3]) amounted to 3310 ± 566 ng/mL; in series [2] (setting [4]) it was 2230 ± 559 ng/mL.

As for `Cc1ccc(C2OC(CO)C(O)C(O)C2OC2OC(C(=O)O)C(O)C(O)C2O)cc1Cc1ccc(-c2ccc(F)cc2)s1` (stereo not shown) [M5], the “Concentration of metabolite in rat plasma (in words)” value (“Concentration of metabolite” below) in series [2] is reported as “high”. In series [2] (setting [3]), the Tmax was found to be 1.8 ± 0.84 h, the half-life is 14.6 ± 18.3 h and the peak concentration (Cmax) stood at 126 ± 31.1 ng/mL. Further, in series [2] (setting [4]), the highest concentration (Cmax) was 160 ± 54.4 ng/mL, the Tmax stood at 1.67 ± 0.58 h and the half-life was 13.3 ± 6.25 h.

For `Cc1ccc(C2OC(CO)C(O)C(OC3OC(C(=O)O)C(O)C(O)C3O)C2O)cc1Cc1ccc(-c2ccc(F)cc2)s1` (stereo not shown) [M7], the “Concentration of metabolite” value in series [2] is “high”. Also, in series [2] (setting [3]), the time of peak concentration (Tmax) amounted to 2.02 ± 0.11 h, the half-life is 10 ± 6.45 h and the peak concentration (Cmax) was found to be 44.9 ± 20.5 ng/mL. Also, in series [2] (setting [4]), the peak concentration (Cmax) was 90.6 ± 18.7 ng/mL, the time to peak (Tmax) was found to be 1.81 ± 0.12 h and the half-life is 14.5 ± 4.86 h.

As to `OCc1ccc([C@@H]2O[C@H](CO)[C@@H](O)[C@H](O)[C@H]2O)cc1Cc1ccc(-c2ccc(F)cc2)s1` [M8], the “Concentration of metabolite” value in series [2] is listed as “almost too low to quantify”.

In the case of `Cc1ccc(C2OC(CO)C(O)C(O)C2O)cc1C(O)c1ccc(-c2ccc(F)cc2)s1` (stereo not shown) [M9], the “Concentration of metabolite” value in series [2] is given as “high”. In addition, in series [2] (setting [3]), the time of peak concentration (Tmax) was 5.01 ± 0.11 h, the half-life is 10.7 ± 1.63 h and the highest concentration (Cmax) came to 97.5 ± 10.8 ng/mL. Moreover, in series [2] (setting [4]), the Cmax came out at 161 ± 10.5 ng/mL, the time to peak (Tmax) was 4.75 ± 0.5 h and the half-life is 12.8 ± 8.81 h.
